Reference: ChEMBL document CHEMBL3856283, “Structure-based design of ester compounds to inhibit MLL complex catalytic activity by targeting mixed lineage leukemia 1 (MLL1)-WDR5 interaction” (Bioorg Med Chem, 2016)

Columns and labels:
[1] = Antiproliferative activity against human MV4-11 cells harboring MLL-AF4 assessed as inhibition of cell viability after 72 hrs by CCK8-based colorimetric assay; format: functional; conditions: MV4-11, 72 h
[2] = Antiproliferative activity against human MV4-11 cells harboring MLL-AF4 after 7 days by CellTiter-Glo luminescent cell viability Assay; format: functional, cell-based; conditions: MV4-11, 168 h
[3] = Antiproliferative activity against human K562 cells harboring BCR-ABL assessed as inhibition of cell viability after 72 hrs by CCK8-based colorimetric assay; format: functional; conditions: K562, 72 h
[4] = target: T1, WD repeat-containing protein 5 (Homo sapiens, UniProt P61964); assay: Inhibition of C-terminal 5-FAM-ARTEVHLRKS binding to WDR5 (unknown origin) by fluorescence polarization assay
[5] = Permeability of the compound after 4 hrs by PAMPA; format: ADME; conditions: read-out: permeability
[6] = target: T1, WD repeat-containing protein 5; assay: Inhibition of N-terminal FITC-GSARAEVHLRKS binding to WDR5 (unknown origin) by fluorescence polarization assay
[7] = target: MLL1/ASH2L/RBBP5/WDR5 complex (Homo sapiens, UniProt P61964+Q03164+Q15291+Q9UBL3); assay: Inhibition of recombinant MLL1 (unknown origin) interaction with recombinant ASH2L/RBBP5/WDR5 (unknown origin) assessed as decrease in histone methylation after 60 mins by Alpha Screen assay; format: protein-complex assay
K562 = assay: Selectivity ratio of IC50 for human K562 cells harboring BCR-ABL to IC50 for human MV4-11 cells harboring MLL-AF4; format: functional

Row | Structure (SMILES) | IC50 [1] | IC50 [3] | IC50 [4] | Papp at 4 h [5] | further results
1 | CCC(CC)(NC(=O)C(C)C)C(=O)N[C@@H](CCCNC(=N)N)C(=O)NC1(C(=O)NC(c2ccc(F)cc2)c2ccc(F)cc2)CCCC1 | 20.7 µM | 37.8 µM |  |  | IC50 [2]: 25 µM
2 | Cc1c(F)c([N+](=O)[O-])cc(C(=O)Nc2cc(C(=O)OC3CCCCC3)ccc2N2CCN(C)CC2)c1Cl |  |  | > 0.02 µM |  | 
3 | CC(C)OC(=O)c1ccc(N2CCN(C)CC2)c(NC(=O)c2ccc(F)c([N+](=O)[O-])c2)c1 | 13.3 µM | 58 µM | 1.17 µM | 61.4 ×10⁻⁶ cm/s | 
4 | Cc1c(F)ccc(C(=O)Nc2cc(C(=O)OC(C)C)ccc2N2CCN(C)CC2)c1Cl | 57.1 µM | > 100 µM | 0.264 µM | 49.8 ×10⁻⁶ cm/s | 
5 | CN1CCN(c2ccc(C(=O)Oc3ccccc3)cc2NC(=O)c2ccc(F)c([N+](=O)[O-])c2)CC1 | 10.8 µM | 11.6 µM | 0.483 µM | 60 ×10⁻⁶ cm/s | 
6 | COC(=O)c1ccc(N2CCN(C)CC2)c(NC(=O)c2cccc(OC)c2)c1 |  |  |  |  | Kd [6]: 3 µM
7 | CN1CCN(c2ccc(C(=O)Oc3ccccc3)cc2NC(=O)c2ccc(F)c(N)c2)CC1 |  |  | > 20 µM |  | 
8 | COC(=O)c1ccc(N2CCN(C)CC2)c(NC(=O)c2cc(N)c(F)c(C)c2Cl)c1 | > 100 µM | > 100 µM | 0.0465 µM | 52.9 ×10⁻⁶ cm/s | IC50 [7]: 4.6 µM
9 | Cc1c(F)ccc(C(=O)Nc2cc(C(=O)Oc3ccccc3)ccc2N2CCN(C)CC2)c1Cl | 45.2 µM | 53.9 µM | 0.162 µM | 48 ×10⁻⁶ cm/s | 
10 | CCOC(=O)c1ccc(N2CCN(C)CC2)c(NC(=O)c2ccc(F)c(C)c2Cl)c1 | 49.8 µM | 90.7 µM | 0.284 µM | 44.9 ×10⁻⁶ cm/s | 
11 | CN1CCN(c2ccc(C(=O)OC3CCCCC3)cc2NC(=O)c2ccc(F)c([N+](=O)[O-])c2)CC1 |  |  | > 20 µM |  | 
12 | CCOC(=O)c1ccc(N2CCN(C)CC2)c(NC(=O)c2ccc(F)c([N+](=O)[O-])c2)c1 |  |  | > 0.02 µM |  | 
13 | Cc1c(F)ccc(C(=O)Nc2cc(C(=O)O)ccc2N2CCN(C)CC2)c1Cl |  |  | > 20 µM |  | 
14 | COC(=O)c1ccc(N2CCN(C)CC2)c(NC(=O)c2ccc(F)c(N)c2)c1 |  |  | > 0.02 µM |  | 
15 | COC(=O)c1ccc(N2CCN(C)CC2)c(NC(=O)c2ccc(F)c(C)c2Cl)c1 | > 100 µM | > 100 µM | 0.433 µM | 59.8 ×10⁻⁶ cm/s | 
16 | CC(C)OC(=O)c1ccc(N2CCN(C)CC2)c(NC(=O)c2ccc(F)c(N)c2)c1 |  |  | > 0.02 µM |  | 
17 | COC(=O)c1ccc(N2CCN(C)CC2)c(NC(=O)c2ccc(F)c([N+](=O)[O-])c2)c1 | 4.7 µM | 57.1 µM | 0.454 µM | 52.4 ×10⁻⁶ cm/s | Ratio IC50 (K562): 10
18 | Cc1c(F)ccc(C(=O)Nc2cc(C(=O)OC3CCCCC3)ccc2N2CCN(C)CC2)c1Cl |  |  | > 20 µM |  | 
19 | CN1CCN(c2ccc(C(=O)OC3CCCCC3)cc2NC(=O)c2ccc(F)c(N)c2)CC1 |  |  | > 0.02 µM |  | 
20 | Cc1c(F)c(N)cc(C(=O)Nc2cc(C(=O)Oc3ccccc3)ccc2N2CCN(C)CC2)c1Cl | 66.5 µM | 33.4 µM | 0.0264 µM | 38 ×10⁻⁶ cm/s | IC50 [7]: 5.4 µM
21 | Cc1c(F)c(N)cc(C(=O)Nc2cc(C(=O)OC3CCCCC3)ccc2N2CCN(C)CC2)c1Cl | > 100 µM | > 100 µM | 0.0588 µM | 5.6 ×10⁻⁶ cm/s | 
22 | CN1CCN(c2ccc(C(=O)O)cc2NC(=O)c2ccc(F)c([N+](=O)[O-])c2)CC1 |  |  | > 0.02 µM |  | 
23 | COC(=O)c1ccc(N2CCN(C)CC2)c(NC(=O)c2cc([N+](=O)[O-])c(F)c(C)c2Cl)c1 | 3.4 µM | 17.2 µM | 0.245 µM | 74.8 ×10⁻⁶ cm/s | 
24 | Cc1c(F)c([N+](=O)[O-])cc(C(=O)Nc2cc(C(=O)Oc3ccccc3)ccc2N2CCN(C)CC2)c1Cl | 9.9 µM | 15.7 µM | 0.812 µM | 56.3 ×10⁻⁶ cm/s | 
25 | CC(C)NCC(O)COc1cccc2ccccc12 (stereo unspecified) [PROPRANOLOL] |  |  |  | 98.7 ×10⁻⁶ cm/s | 
